In US11154554B2, “Therapeutic combinations of a MEK inhibitor and a BTK inhibitor” (Acerta Pharma B.V., priority 2015, dated 2021):
Read-outs that look alike come from different tables or passages of the source.

Legend:
[1] = test system: 80 known pharmacologic targets such as G-protein-coupled receptors, nuclear receptors, proteases, and ion channels; test: Binding assays on 80 known pharmacologic targets; settings: screened at 10 μM
[2] = test system: CYP enzymes; test: Nonclinical CYP interaction studies; type: in vitro ADME
[3] = test system: NK cells; test: NK cell degranulation/ADCC whole blood assay with obinutuzumab; type: cell-based, human; settings: 1 hour pretreatment, MEC-1 opsonised with obinutuzumab 1 μg/mL, 4 hours
Description: Degranulation in whole blood was performed as follows. […] Exponentially growing cells were used. On the day of the experiment, 8 mL of blood was drawn from a normal volunteer into a test tube containing desirudin to obtain a final concentration of 50 μg/mL. A white blood cell (WBC) count of whole blood was performed. […] The ibrutinib control and two blinded BTK inhibitors were diluted in X-VIVO 15 serum-free hematopoietic cell medium (Lonza Group, Ltd.) to concentrations of 200 μM, 20 μM and 2 μM. 170 μL aliquots of unmanipulated whole blood were incubated with 10 μL BTK inhibitors or X-VIVO 15 medium for one hour into a plate. […] The samples were placed in a 5% CO2 incubator for 4 hours at 37° C.
After 4 hours, the samples were mixed gently and 50 μL aliquots were removed from each well and placed in fluorescence-activated cell sorting (FACS) test tubes. A 20 μL aliquot of anti-CD56-APC antibody and anti-CD107a-PE antibody was added. The samples were incubated for 20 minutes at room temperature in the dark. An aliquot of 2 mL of FACS lysing solution (BD Biosceinces) was added. The samples were again incubated for 5 minutes, and then centrifuged at 2000 rpm for 5 minutes. Supernatant was discarded and the cell pellet was resuspended in 500 μL of PBS. The samples were analyzed on the flow cytometer for CD107a^+ NK cells (CD56^+).

[4] = Glutathione binding and depletion in vitro; type: in vitro ADME
[5] = target: CYP3A4 (Homo sapiens, UniProt P08684); test: Loss of parent drug as catalyzed by CYPs; type: in vitro ADME; settings: in vitro
[6] = test system: human platelet-mediated thrombus formation; test: In vivo human thrombus formation in VWF HA1 mice (laser injury); settings: human platelets preincubated with inhibitor, laser-induced injury
[7] = test system: CD8^+ T cells; test: IFN-γ level measurements for CD8+ T cell function; type: cell-based; settings: relative to vehicle
[8] = test system: GPVI
[9] = target: EGFR (Homo sapiens, UniProt P00533); test: EGF receptor phosphorylation in A431 cells
[10] = test system: CD8^+ T cells; test: Cytotoxicity assay for CD8+ T cell function; type: cell-based; settings: relative to vehicle
[11] = Metabolism in plasma, bile, and urine; type: in vivo; settings: rats, dogs, and monkeys; preliminary evaluations
[12] = test system: NK cells; test: Rituximab ADCC mediated by NK cells; type: cell-based
[13] = test system: BCR activation markers CD69 and CD86; test: In vivo potency, BCR activation markers after oral gavage; settings: mice, 3 hours post-dose, BCR stimulated with IgM
Description: Mice were gavaged at increasing drug concentration and sacrificed at one time point (3 hours post-dose). BCR is stimulated with IgM and the expression of activation markers CD69 and CD86 are monitored by flow cytometry to determine ECovalues.
CD86 and CD69 are cell surface proteins that are BCR activation markers. […] BCR was stimulated with IgM and the expression of activation marker CD69 and CD86 are monitored by flow cytometry to determine EC50 values.

[14] = test system: B cell receptor; test: Whole blood B cell receptor signalling assay (CD69 on CD19+ B cells); type: cell-based; settings: whole blood of four healthy donors, 2 hours with compound, anti-human IgD 10 μg/mL for 18 hours, read-out: EC50, CD69 on gated CD19+ B cells
[15] = test system: GPVI; test: GPVI platelet aggregation
[16] = test system: hepatocytes; test: In vitro metabolism in hepatocytes with 14C-labeled drug; type: in vitro ADME, mouse, rat, dog, rabbit, monkey, and human
[17] = target: T1, BTK (Mus musculus, UniProt P35991); test: Molecular probe assay of BTK occupancy in MDSCs of PDA mice; type: in vivo; settings: 15 mg/kg BID; granulocytic and monocytic MDSC compartments; Day 8, 4 hours post dose
T1 construct: MDSCs were purified from tumor bearing PDA mice; endogenous in cells; host or cells: granulocytic and monocytic MDSCs from PDA mice dosed in vivo
Source text: A molecular probe assay was used to calculate the percent irreversible occupancy of total BTK.

[18] = test system: KrasLA2 non-small cell lung cancer (NSCLC) model; test: KrasLA2 genetic tumor model of NSCLC; type: in vivo, mice; settings: 15 mg/kg
Source text: The model is designed to have sporadic expression in single cells of G12D mutant Kras off its own promoter triggered by spontaneous intrachromosomal recombination. Johnson, et al. Nature 2001, 410, 1111-16. While the mutant Kras protein is expressed in a few cells in all tissues, tumor development is seen only in the lung at high penetrance.

[19] = within the tested dose range (through 840 mg); cited from earlier work

Chain of EGFR (P00533 25-1210): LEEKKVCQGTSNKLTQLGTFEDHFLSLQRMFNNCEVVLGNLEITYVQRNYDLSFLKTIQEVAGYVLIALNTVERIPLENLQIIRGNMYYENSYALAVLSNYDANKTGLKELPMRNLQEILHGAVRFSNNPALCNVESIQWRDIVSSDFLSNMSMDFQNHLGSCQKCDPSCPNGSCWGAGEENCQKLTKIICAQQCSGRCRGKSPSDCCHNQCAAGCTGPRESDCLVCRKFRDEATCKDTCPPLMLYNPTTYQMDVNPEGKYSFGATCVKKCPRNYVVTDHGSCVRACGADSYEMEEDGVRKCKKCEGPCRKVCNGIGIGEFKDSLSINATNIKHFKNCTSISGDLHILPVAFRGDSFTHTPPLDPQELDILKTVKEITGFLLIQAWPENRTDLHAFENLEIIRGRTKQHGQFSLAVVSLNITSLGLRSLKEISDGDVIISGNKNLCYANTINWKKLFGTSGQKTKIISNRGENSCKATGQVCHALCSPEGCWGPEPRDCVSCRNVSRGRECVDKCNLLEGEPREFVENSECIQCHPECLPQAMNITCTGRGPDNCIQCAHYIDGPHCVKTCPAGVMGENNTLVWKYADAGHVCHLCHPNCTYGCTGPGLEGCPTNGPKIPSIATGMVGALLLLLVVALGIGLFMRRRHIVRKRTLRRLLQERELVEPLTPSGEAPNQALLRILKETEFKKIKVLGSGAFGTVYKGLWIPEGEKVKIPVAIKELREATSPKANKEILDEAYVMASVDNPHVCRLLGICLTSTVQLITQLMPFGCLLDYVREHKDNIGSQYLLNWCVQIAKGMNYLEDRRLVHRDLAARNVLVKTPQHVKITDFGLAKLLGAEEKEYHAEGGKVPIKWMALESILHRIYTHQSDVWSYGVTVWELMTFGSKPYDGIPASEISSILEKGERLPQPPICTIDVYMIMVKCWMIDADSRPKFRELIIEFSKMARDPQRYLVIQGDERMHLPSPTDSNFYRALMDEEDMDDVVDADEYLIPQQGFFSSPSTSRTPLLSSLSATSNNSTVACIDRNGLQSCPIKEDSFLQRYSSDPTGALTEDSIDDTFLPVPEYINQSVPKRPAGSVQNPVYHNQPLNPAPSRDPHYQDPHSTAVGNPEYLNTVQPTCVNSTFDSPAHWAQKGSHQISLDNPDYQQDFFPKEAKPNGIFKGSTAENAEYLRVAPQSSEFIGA
T1 sequence (P35991 whole entry): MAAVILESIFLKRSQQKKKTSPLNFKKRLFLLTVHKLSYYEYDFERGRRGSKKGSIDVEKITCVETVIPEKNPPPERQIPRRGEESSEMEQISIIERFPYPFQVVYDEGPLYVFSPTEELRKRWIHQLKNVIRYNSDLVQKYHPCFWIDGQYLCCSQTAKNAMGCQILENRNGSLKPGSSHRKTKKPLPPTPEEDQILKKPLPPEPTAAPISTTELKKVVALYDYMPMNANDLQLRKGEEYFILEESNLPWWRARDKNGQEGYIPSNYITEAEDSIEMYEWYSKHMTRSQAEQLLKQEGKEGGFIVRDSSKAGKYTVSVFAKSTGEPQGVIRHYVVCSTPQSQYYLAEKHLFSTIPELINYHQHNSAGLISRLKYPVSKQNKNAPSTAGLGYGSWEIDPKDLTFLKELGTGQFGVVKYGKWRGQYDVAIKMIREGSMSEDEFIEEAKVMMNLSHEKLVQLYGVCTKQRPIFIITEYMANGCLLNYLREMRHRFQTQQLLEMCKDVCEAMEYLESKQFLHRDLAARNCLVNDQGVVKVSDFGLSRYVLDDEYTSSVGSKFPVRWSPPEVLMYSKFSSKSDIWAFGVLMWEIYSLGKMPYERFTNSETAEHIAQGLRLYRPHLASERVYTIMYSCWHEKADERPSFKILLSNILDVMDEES
Chain of CYP3A4 (P08684 whole entry): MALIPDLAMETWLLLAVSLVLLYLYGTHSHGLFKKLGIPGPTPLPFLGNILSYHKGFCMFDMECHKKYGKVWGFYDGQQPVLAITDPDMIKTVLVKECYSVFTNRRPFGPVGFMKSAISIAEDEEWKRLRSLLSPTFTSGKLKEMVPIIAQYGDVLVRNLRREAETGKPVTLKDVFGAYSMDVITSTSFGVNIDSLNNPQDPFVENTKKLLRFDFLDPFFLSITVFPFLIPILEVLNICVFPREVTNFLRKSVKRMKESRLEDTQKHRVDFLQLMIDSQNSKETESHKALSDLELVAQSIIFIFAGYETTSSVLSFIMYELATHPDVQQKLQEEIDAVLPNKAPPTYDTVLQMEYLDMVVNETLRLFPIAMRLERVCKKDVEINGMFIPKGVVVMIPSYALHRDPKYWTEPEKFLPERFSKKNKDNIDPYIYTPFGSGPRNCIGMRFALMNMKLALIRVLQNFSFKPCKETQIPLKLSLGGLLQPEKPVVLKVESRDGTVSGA

## CC#CC(=O)N1CCC[C@H]1c1nc(-c2ccc(C(=O)Nc3ccccn3)cc2)c2c(N)nccn12 [Formula (2), (S)-4-(8-amino-3-(1-(but-2-ynoyl)pyrrolidin-2-yl)imidazo[1,5-a]pyrazin-1-yl)-N-(pyridin-2-yl)benzamide]
[1]
  activity in binding assays with 80 known pharmacologic targets: significant activity only against the A3 adenosine receptor
[2]
  potential for CYP-mediated drug-drug interactions: very unlikely to cause clinical drug-drug interactions
[3]
  effect on CD56+/CD107a+ NK cells, obinutuzumab-stimulated degranulation: minimal effect
[4]
  glutathione binding and depletion: binds to glutathione but does not deplete glutathione
[5]
  CYP responsible for metabolism: metabolized by CYP3A4
[6]
  effect on human platelet-mediated thrombus formation: no significant effect
[7]
  CD8+ T cell function as measured by IFN-γ level: no effect
[8]
  inhibition of GPVI platelet aggregation: does not
[9]; 10 μM, A431 human epidermoid cancer cell line
  inhibition of in vitro EGFR phosphorylation: no inhibition
[9]; A-431, read-out: EGF-induced p-EGFR inhibition
  inhibition at 10 µM: 7%
[10]
  CD8+ T cell function as measured by % cytotoxicity: no effect
[11]
  metabolic processes in plasma, bile, and urine: metabolic processes of oxidation, glutathione binding, and hydrolysis
[12]
  antagonism of rituximab ADCC effects mediated by NK cells: does not antagonize
[13]
  in vivo potency at inhibiting expression of activation markers CD69 and CD86: more potent at inhibiting expression of activation makers than Formula (10) (ibrutinib)
[14]
  EC50: 8.2 nM
[15]; read-out: IC50, GPVI platelet aggregation, purified human platelets, Convulxin (CVX)
  IC50: 1150 nM
[16]; hepatocytes of six species
  unique human metabolite: No unique human metabolite was identified
[16]; mouse, rat, dog, rabbit, monkey, and human hepatocytes, 14C-labeled drug
  metabolites in hepatocytes: two mono-oxidized metabolites and a glutathione conjugate
[17]
  irreversible occupancy of total BTK in MDSCs: Complete BTK occupancy
[18]
  effects on TAMs, MDSCs, Tregs, and CD8+ cells: consistent with suppression of the solid tumor microenviroment
  number of tumors: fewer overall tumors
  tumor volumes versus vehicle: significant decrease

## C=CC(=O)Nc1cccc(Nc2nc(Nc3ccc(OCCOC)cc3)ncc2F)c1 [Formula (17), N-(3-((5-fluoro-2-((4-(2-methoxyethoxy)phenyl)amino)pyrimidin-4-yl)amino)phenyl)acrylamide, reference compound]
[6]
  effect on human platelet-mediated thrombus formation: effect similar to Formula (10) (ibrutinib)
[14]
  EC50: 121 nM

## C=CC(=O)N1CCC[C@@H](n2nc(-c3ccc(Oc4ccccc4)cc3)c3c(N)ncnc32)C1 [Formula (10), 1-[(3R)-3-[4-amino-3-(4-phenoxyphenyl)-1H-pyrazolo[3,4-d]pyrimidin-1-yl]piperidin-1-yl]prop-2-en-1-one, reference compound]
[19]
  maximum tolerated dose (MTD): No maximum tolerated dose (MTD) was apparent
[7]
  CD8+ T cell function as measured by IFN-γ level: affects CD8^+ T cell function
[10]
  CD8+ T cell function as measured by % cytotoxicity: affects CD8^+ T cell function
[12]
  antagonism of rituximab ADCC effects mediated by NK cells: undesirably antagonizes
[14]
  EC50: 6.1 nM
[15]; human platelets, CVX-induced
  inhibition of GPVI platelet aggregation: significantly inhibits
